Results published in patent US20220054617A1, “SUBUNIT VACCINE CONSTRUCTS FOR FLAVIVIRUSES” (priority 2018, published 2022).

What was measured:
albumin = details: human, non-human primate, pig, rabbit, rat, mouse; cited from earlier work
TLR-8 = TLR-8 (Homo sapiens, UniProt Q9NR97); details: in vitro
TLR-7 = TLR-7 (Homo sapiens, UniProt Q9NYK1); details: in vitro
[1] = tested on: human whole blood or PBMCs

TLR-7, sequence (Q9NYK1 27-1049, species assumed): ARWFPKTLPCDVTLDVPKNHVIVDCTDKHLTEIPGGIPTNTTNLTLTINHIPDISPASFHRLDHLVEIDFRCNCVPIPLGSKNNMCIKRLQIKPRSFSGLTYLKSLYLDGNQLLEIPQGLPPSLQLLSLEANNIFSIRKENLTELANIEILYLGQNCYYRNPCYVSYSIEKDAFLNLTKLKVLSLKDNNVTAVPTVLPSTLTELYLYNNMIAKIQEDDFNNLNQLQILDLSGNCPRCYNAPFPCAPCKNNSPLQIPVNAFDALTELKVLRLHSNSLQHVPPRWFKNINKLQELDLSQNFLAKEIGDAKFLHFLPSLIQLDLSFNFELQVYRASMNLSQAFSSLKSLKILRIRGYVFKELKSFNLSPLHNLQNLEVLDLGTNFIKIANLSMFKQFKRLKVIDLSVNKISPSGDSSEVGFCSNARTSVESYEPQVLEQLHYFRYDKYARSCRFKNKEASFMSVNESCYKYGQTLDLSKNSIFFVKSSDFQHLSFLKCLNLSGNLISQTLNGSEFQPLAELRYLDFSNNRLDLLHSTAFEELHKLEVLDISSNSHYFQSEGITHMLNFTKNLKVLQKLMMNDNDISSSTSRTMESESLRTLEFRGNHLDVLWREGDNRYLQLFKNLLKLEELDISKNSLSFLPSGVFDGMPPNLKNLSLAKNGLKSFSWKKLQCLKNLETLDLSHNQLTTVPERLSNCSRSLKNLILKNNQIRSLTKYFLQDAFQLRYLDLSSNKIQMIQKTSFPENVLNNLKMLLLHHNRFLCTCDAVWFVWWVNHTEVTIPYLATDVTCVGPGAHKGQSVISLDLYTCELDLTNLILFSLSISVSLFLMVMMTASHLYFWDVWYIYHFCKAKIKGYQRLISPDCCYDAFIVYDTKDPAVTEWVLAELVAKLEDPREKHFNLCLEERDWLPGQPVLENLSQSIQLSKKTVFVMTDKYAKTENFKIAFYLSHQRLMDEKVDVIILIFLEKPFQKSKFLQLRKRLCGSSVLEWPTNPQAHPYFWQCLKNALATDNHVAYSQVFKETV
TLR-8, sequence (Q9NR97 27-1041): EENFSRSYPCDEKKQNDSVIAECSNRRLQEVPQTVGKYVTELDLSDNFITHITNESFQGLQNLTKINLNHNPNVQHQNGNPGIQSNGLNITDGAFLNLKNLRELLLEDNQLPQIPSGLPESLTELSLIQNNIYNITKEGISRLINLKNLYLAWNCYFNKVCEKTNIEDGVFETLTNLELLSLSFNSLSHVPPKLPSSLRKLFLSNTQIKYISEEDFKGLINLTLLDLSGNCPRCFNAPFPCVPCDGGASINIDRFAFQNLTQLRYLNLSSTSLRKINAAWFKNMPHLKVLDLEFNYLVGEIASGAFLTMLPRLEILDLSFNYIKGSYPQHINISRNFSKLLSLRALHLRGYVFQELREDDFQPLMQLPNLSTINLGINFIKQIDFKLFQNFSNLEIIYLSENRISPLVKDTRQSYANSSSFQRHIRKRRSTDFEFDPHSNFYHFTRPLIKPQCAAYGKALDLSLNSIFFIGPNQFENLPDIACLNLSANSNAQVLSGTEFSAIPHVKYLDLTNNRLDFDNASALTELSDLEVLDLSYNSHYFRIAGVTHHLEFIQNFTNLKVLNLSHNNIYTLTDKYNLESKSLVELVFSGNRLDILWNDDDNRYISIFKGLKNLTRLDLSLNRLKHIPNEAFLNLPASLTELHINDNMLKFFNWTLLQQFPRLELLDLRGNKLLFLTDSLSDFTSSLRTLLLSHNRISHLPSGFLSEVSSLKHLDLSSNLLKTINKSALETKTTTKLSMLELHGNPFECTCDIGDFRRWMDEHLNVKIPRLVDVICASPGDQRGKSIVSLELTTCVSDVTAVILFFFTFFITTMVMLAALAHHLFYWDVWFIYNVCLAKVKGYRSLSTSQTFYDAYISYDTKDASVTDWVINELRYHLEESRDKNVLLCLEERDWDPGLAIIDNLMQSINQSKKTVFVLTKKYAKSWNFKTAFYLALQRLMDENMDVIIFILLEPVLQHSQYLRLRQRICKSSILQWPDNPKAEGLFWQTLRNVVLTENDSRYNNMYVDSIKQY

Substance	binding to albumin (albumin)	activity in TLR-8 primary assay (TLR-8)	activity in TLR-7 primary assay (TLR-7)	cytokine induction [1]	adjuvant effect (ZIKV; in vivo)	elicitation of neutralizing antibodies after the first boost (ZIKV; with the ZIKV antigen, several candidate adjuvants examined, preliminary screens)
SGP portion: portion of the Streptococcal G protein used as N-terminal tag, SEQ ID NO: 14 (LAEAKVLANRELDKYGVSDYYKNLINNAKTVEGVKALIDEILAALPK)	good binding					
covalent conjugate of an imidazoquinoline TLR7/TLR8 dual agonist [5-(3-(aminomethyl)benzyl)-3-pentylquinolin-2-amine] with hyaluronic acid [EY-4-143]		inactive	inactive	silent	potent adjuvant	consistently elicit neutralizing antibodies after the first boost
